Like-named read-outs stand apart in the source and are kept apart here.
Experiments:
[1] = tested on: hand OA participants; settings: per-protocol; for Numerical Rating Scale (NRS) 90 days (95% CI) / Numerical Rating Scale (NRS) Baseline (95% CI): imputed data; for Numerical Rating Scale (NRS) Baseline (95% CI): scale 0-10; for Numerical Rating Scale (NRS) Mean diff (95% CI): baseline to 90 days
From the text: (§1) Participants were issued with a diary card with their medication to be completed for VAS pain rating on a daily basis. […] The protocol recommended that participants should record use of rescue medication (paracetamol up to 4 g daily) in their diary card. […] All other care was at the discretion of the treating physicians.
Additional secondary outcomes included the Numerical Rating Scale (NRS) pain rating 0-10, the Hospital Anxiety and Depression Scale (HADS) (Bjelland et al., Journal of Psychosomatic Research. 2002; 52(2): 69-77) and pain sensitisation measures in the three treatment groups at baseline and at week 13. Operational definitions for all end points, including time points for comparisons, were specified prospectively in the trial protocol.
(§2) The AUSCAN pain, stiffness and function outcomes are presented as means and 95% confidence intervals. Analysed between group were comparisons by the Mann Whitney U test. Baseline characteristics in each group are shown by mean values and standard deviation. […] IBM SPSS Statistics 21.0 was used for all analyses and graphs were plotted using Graphpad Prism version 6.

[2] = tested on: hand OA participants; settings: for Side effects: Total (adverse events recorded): all systems, whole treatment group; for Participants discontinuing treatment / withdrawing because of (serious) adverse events: number of participants
Method: The safety and tolerability of these agents used in this context was secondarily explored, and pain sensitisation measures were assessed.
as §1

[3] = tested on: hand OA participants; settings: for Consumption of rescue medication (total): paracetamol up to 4 g daily as rescue medication, per-protocol population; for Average use of paracetamol as rescue medication compared with placebo: result in words
From the text: as §1

[4] = tested on: hand OA participants; settings: for AUSCAN pain score 90 days (95% CI) / AUSCAN pain score Baseline (95% CI): per-protocol population; for AUSCAN pain score 90 days (95% CI) / AUSCAN pain score Baseline (95% CI) / AUSCAN function 90 days (95% CI) / AUSCAN stiffness 90 days (95% CI) / AUSCAN function Baseline (95% CI) / AUSCAN stiffness Baseline (95% CI): imputed data; for AUSCAN pain score 90 days (95% CI): pregabalin up to 300 mg, duloxetine up to 60 mg daily; for AUSCAN pain score Baseline (95% CI): 5 questions 0-100 mm, total of 500; for AUSCAN function 90 days (95% CI) / AUSCAN stiffness 90 days (95% CI) / AUSCAN function Baseline (95% CI) / AUSCAN stiffness Baseline (95% CI) / AUSCAN function Mean diff (95% CI) / AUSCAN stiffness Mean diff (95% CI) / AUSCAN pain score Mean diff (95% CI): per-protocol; for AUSCAN stiffness Baseline (95% CI): one question 0-100 mm; for AUSCAN function Mean diff (95% CI) / AUSCAN stiffness Mean diff (95% CI): baseline to 90 days; for AUSCAN pain score Mean diff (95% CI): change between baseline and 90 days (13 weeks), primary endpoint
From the text: Inclusion criteria: Participants were eligible for screening if they were aged 40-75 years, had hand OA diagnosed by ACR criteria (Altman et al., Arthritis and Rheumatism 1990; 33(11): 1601-10) confirmed by a rheumatologist and experiencing pain of at least 5 or above on a numerical rating scale (NRS) of 0-10. […] All participants underwent baseline hand radiography to confirm radiographic evidence of OA. The radiographic findings were used to confirm radiographic evidence of OA from ACR criteria of at least 3 joints affected, with a Kellgren-Lawrence grade (Kellgren et al., Ann Rheum Dis 1957; 16(4): 494-502) of 2 or above in at least 3 affected joints. Radiographic scoring was performed after a training session independently by 2 researchers.
Participants were issued with a diary card with their medication to be completed for VAS pain rating on a daily basis. […] The protocol recommended that participants should record use of rescue medication (paracetamol up to 4 g daily) in their diary card.
The primary end point was the Australian and Canadian Hand Osteoarthritis Index (AUSCAN) rating scale 3.1 with sub-scales for pain, which is a validated measure of hand pain, stiffness and function in clinical trials of hand OA (Bellamy et al., Arthritis Care Res (Hoboken) 2015; 67(7): 972-80). Based on IMMPACT guidelines for pain trials (Dworkin et al., Pain 2005; 113: 9-19), primary end-point data for the AUSCAN pain sub-scale was collected. The primary endpoint was change in AUSCAN pain between baseline and 13 weeks. Patient-reported symptoms were recorded in three domains and participants asked to record their scores based on symptoms ‘in the last 48 hours’. Pain reporting consists of 5 questions, rated at 0-100 mm each, for pain in the hands at rest, gripping objects, turning and squeezing objects, scoring out of a total of 500.
For secondary outcome data, the AUSCAN stiffness and function scales were recorded; there was one question for stiffness symptoms (0-100 mm) and 3 questions testing function (0-100 mm each). Additional secondary outcomes included the Numerical Rating Scale (NRS) pain rating 0-10, the Hospital Anxiety and Depression Scale (HADS) (Bjelland et al., Journal of Psychosomatic Research. 2002; 52(2): 69-77) and pain sensitisation measures in the three treatment groups at baseline and at week 13. Operational definitions for all end points, including time points for comparisons, were specified prospectively in the trial protocol.
as §2

[5] = tested on: hand OA participants; settings: per-protocol; for Hospital Anxiety and Depression Scale Depression Mean diff (95% CI): baseline to 90 days; for Hospital Anxiety and Depression Scale Anxiety Baseline (95% CI): listed as head as printed; for Hospital Anxiety and Depression Scale Anxiety: listed as head prints only 'Anxiety'
From the text: Additional secondary outcomes included the Numerical Rating Scale (NRS) pain rating 0-10, the Hospital Anxiety and Depression Scale (HADS) (Bjelland et al., Journal of Psychosomatic Research. 2002; 52(2): 69-77) and pain sensitisation measures in the three treatment groups at baseline and at week 13.

[6] = tested on: primary hand OA; settings: Basoki et al., Ann Rheum Dis 2015; cited from earlier work
[7] = tested on: knee OA; settings: Chappell et al., Pain 2009; cited from earlier work
[8] = number of adverse events recorded in treatment group

Row | Compound | Numerical Rating Scale (NRS) 90 days (95% CI) [1] | Numerical Rating Scale (NRS) Baseline (95% CI) [1] | Numerical Rating Scale (NRS) Mean diff (95% CI) [1] | Side effects: Total (adverse events recorded) [2] | Side effects: Cardiovascular [2, 8] | Side effects: Digestive [2, 8] | Side effects: Mental [2, 8] | Side effects: Nervous system, Dizziness [2, 8] | Side effects: Nervous system, Dry mouth [2, 8] | Side effects: Nervous system, Headaches [2, 8] | Side effects: Nervous system, Sleepiness [2, 8] | Side effects: Ophthalmological [2, 8] | Side effects: Respiratory [2, 8] | Participants discontinuing treatment / withdrawing because of (serious) adverse events [2] | Consumption of rescue medication (total) [3] [days] | Average use of paracetamol as rescue medication compared with placebo [3] | AUSCAN pain score 90 days (95% CI) [4] | AUSCAN pain score Baseline (95% CI) [4] | AUSCAN function 90 days (95% CI) [4] | AUSCAN stiffness 90 days (95% CI) [4] | other results
1 | CC(C)C[C@H](CN)CC(=O)O [Pregabalin, (3S)-3-(aminomethyl)-5-methylhexanoic acid] | 3.4 (2.4 to 4.4) | 6.1 (5.4 to 6.7) | −2.7 (−3.5 to −1.9) | 55 | 3 | 7 | 9 | 7 | 6 | 3 | 5 | 4 | 2 | 4 | 9 | much lower | 176.5 (123.9 to 229.1) | 308.5 (262.6 to 354.5) | 362.2 (281.7 to 442.7) | 36.5 (23.0 to 49.9) | Side effects: Genitourinary [2, 8]: 1; Side effects: Nervous system, Loss of balance [2, 8]: 7; AUSCAN function Baseline (95% CI) [4]: 608.5 (541.3 to 675.7); AUSCAN stiffness Baseline (95% CI) [4]: 59.9 (51.8 to 67.9); AUSCAN function Mean diff (95% CI) [4]: −246.3 (−341.7 to −151.0); AUSCAN stiffness Mean diff (95% CI) [4]: −23.4 (−35.7 to −11.1); AUSCAN pain score Mean diff (95% CI) [4]: −132.0 (−181.1 to −82.9); AUSCAN pain score Mean diff (95% CI) ([4]; listed as pregabalin): −132.0; Dose giving maximum analgesic and functional improvement effect (AUSCAN trajectory, FIG. 3) ([4]; result in words): maximum analgesic and functional improvement effect at the higher dose of 300 mg; Hospital Anxiety and Depression Scale Depression 90 days (95% CI) [5]: 4.1 (2.6 to 5.6); Hospital Anxiety and Depression Scale Depression Baseline (95% CI) [5]: 5.1 (3.3 to 6.9); Hospital Anxiety and Depression Scale Depression Mean diff (95% CI) [5]: −1.1 (−2.1 to −0.02); Hospital Anxiety and Depression Scale Anxiety Baseline (95% CI) [5]: 5.2 (2.9 to 7.5); Hospital Anxiety and Depression Scale Anxiety [5]: 6.1 (3.8 to 8.3)
2 | CCN(CCO)CCCC(C)Nc1ccnc2cc(Cl)ccc12 (stereo not shown) [hydroxychloroquine] | – | – | – | – | – | – | – | – | – | – | – | – | – | – | – | – | – | – | – | – | Pain reduction compared to placebo in primary hand OA [6]: did not reduce pain compared to placebo
3 | CNCC[C@H](Oc1cccc2ccccc12)c1cccs1 [Duloxetine] | 4.3 (2.6 to 5.9) | 6.6 (5.7 to 7.4) | −2.3 (−3.8 to −0.9) | 57 | 2 | 18 | 9 | 3 | 6 | 8 | 3 | 2 | 3 | 2 | 5 | much lower | 248.1 (162.3 to 333.9) | 310.6 (254.3 to 367.0) | 496.4 (342.4 to 650.5) | 48.3 (29.9 to 66.6) | Side effects: ENT [2, 8]: 2; Side effects: Skin [2, 8]: 1; Significant improvement in AUSCAN pain, stiffness or function compared with placebo ([4]; baseline to 13 weeks, result in words): Significant improvement in AUSCAN pain, stiffness or function were not observed; AUSCAN function Baseline (95% CI) [4]: 598.3 (481.2 to 715.3); AUSCAN stiffness Baseline (95% CI) [4]: 61.8 (45.8 to 77.8); AUSCAN function Mean diff (95% CI) [4]: −101.9 (−248.4 to −44.8); AUSCAN stiffness Mean diff (95% CI) [4]: −13.5 (26.5 to −0.6); AUSCAN pain score Mean diff (95% CI) [4]: −62.5 (−141.6 to 16.6); AUSCAN pain score Mean diff (95% CI) ([4]; listed as duloxetine): −62.5; Hospital Anxiety and Depression Scale Depression 90 days (95% CI) [5]: 3.8 (1.9 to 5.7); Hospital Anxiety and Depression Scale Depression Baseline (95% CI) [5]: 4.1 (2.3 to 5.9); Hospital Anxiety and Depression Scale Depression Mean diff (95% CI) [5]: −0.3 (−1.8 to 1.2); Hospital Anxiety and Depression Scale Anxiety Baseline (95% CI) [5]: 4.3 (2.2 to 6.3); Hospital Anxiety and Depression Scale Anxiety [5]: 5.6 (3.6 to 7.5); Efficacy for pain outcomes in knee OA [7]: shown efficacy for pain outcomes in knee OA

Reference: patent publication US11406613B2, “Treatment of osteoarthritis” (ST GEORGE'S HOSPITAL MEDICAL SCHOOL, priority 2016, dated 2022)
